From publication PMC10378394 (Current Issues in Molecular Biology, 2023)

Experiments:
[1] = test system: HCT116 (KRAS G13D) xenograft; assay: In vivo efficacy, xenograft; parameters: species or system BALB/c nude mice; conditions: 16 days
Procedure: (§1) Human-derived colorectal cancer cell lines, LS513, HCT-116, and HT29, were subcutaneously transplanted into 6-week-old female BALB/c nude mice to establish tumor models. Additionally, the mouse cancer cell line MC38 was subcutaneously transplanted into 6-week-old female and C57BL/6 mice to induce tumor formation. […]. The treatments were administered orally once daily for 2 weeks based on the growth rate observed in the vehicle group. Tumor volume was evaluated three times a week using the formula Tumor volume (TV) = (tumor short diameter ^2 × tumor long diameter)/2. The body weight of the mice was measured three times a week to assess potential toxicity in vivo. […]

[2] = test system: HT29 (BRAF V600E) xenograft; assay: In vivo efficacy, xenograft; parameters: species or system BALB/c nude mice
Procedure: as §1

[3] = test system: LS513 (KRAS G12D) xenograft; assay: In vivo efficacy, xenograft; parameters: species or system BALB/c nude mice; conditions: day 17
Procedure: as §1

MC38 syngeneic tumor = assay: In vivo efficacy, syngeneic model; parameters: species or system C57BL/6 mice; conditions: 80 mg/kg po QD
Procedure: as §1

ARAF = molecular target: T1, ARAF (Homo sapiens, UniProt P10398); assay: Eurofins kinase assay
T1 sequence (P10398 1-606): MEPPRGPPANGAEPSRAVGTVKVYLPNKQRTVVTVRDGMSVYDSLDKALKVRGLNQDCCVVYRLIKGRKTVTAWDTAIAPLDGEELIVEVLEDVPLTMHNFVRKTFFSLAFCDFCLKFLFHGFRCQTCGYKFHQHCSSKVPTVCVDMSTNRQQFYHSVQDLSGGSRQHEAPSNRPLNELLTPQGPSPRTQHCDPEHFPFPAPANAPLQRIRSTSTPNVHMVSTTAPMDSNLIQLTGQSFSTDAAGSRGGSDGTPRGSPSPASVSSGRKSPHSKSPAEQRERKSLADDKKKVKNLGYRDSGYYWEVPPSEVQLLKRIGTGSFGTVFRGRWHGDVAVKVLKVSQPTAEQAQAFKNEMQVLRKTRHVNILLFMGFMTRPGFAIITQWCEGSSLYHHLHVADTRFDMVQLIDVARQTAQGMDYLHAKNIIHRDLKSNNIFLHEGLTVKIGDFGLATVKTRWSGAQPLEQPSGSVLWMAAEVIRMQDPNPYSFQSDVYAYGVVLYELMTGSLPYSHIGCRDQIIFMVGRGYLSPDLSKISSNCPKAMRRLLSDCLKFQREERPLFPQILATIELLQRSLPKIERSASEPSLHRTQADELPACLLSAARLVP

cSRC(h) = cSRC(h) (Homo sapiens, UniProt P12931); assay: Eurofins kinase assay
[4] = molecular target: PI3Kinase(p110a(E542K)/p85a)(m) (Mus musculus, UniProt P42337, E542K); assay: Eurofins kinase assay
BTK(h) = BTK(h) (Homo sapiens, UniProt Q06187); assay: Eurofins kinase assay
PKBα(h) = PKBα(h) (Homo sapiens, UniProt P31749); assay: Eurofins kinase assay
CDK7/cyclinH/MAT1(h) = CDK7/cyclinH/MAT1(h) (Homo sapiens, UniProt P50613); assay: Eurofins kinase assay
CHK2(h) = CHK2(h) (Homo sapiens, UniProt O96017); assay: Eurofins kinase assay
MAPK1(h) = MAPK1(h) (Homo sapiens, UniProt P27361); assay: Eurofins kinase assay
Rsk2(h) = Rsk2(h) (Homo sapiens, UniProt P51812); assay: Eurofins kinase assay
CDK6/cyclinD3(h) = CDK6/cyclinD3(h) (Homo sapiens, UniProt Q00534); assay: Eurofins kinase assay
CDK3/cyclinE(h) = CDK3/cyclinE(h) (Homo sapiens, UniProt Q00526); assay: Eurofins kinase assay
PKCδ(h) = PKCδ(h) (Homo sapiens, UniProt Q05655); assay: Eurofins kinase assay
CDK5/p35(h) = CDK5/p35(h) (Homo sapiens, UniProt Q00535); assay: Eurofins kinase assay
[5] = test system: KRAS and BRAF mutant cancer cells (HCT116, LS513, SW620, HT29); assay: Cell growth assay, panel of cell lines; conditions: read-out: IC50 values, cell growth
Procedure: To assess cell viability, the CellTiter-Glo Luminescent Cell Viability Assay Reagent (Promega, Fitchburg, WI, USA) was added to each well. The assay measured ATP levels as an indicator of cell viability. All data points were normalized to the control samples treated with dimethyl sulfoxide when determining IC50 values. Statistical calculations and data analysis, including IC50 determination, were performed using GraphPad Prism software.

Chain of PKBα(h) (P31749 whole entry): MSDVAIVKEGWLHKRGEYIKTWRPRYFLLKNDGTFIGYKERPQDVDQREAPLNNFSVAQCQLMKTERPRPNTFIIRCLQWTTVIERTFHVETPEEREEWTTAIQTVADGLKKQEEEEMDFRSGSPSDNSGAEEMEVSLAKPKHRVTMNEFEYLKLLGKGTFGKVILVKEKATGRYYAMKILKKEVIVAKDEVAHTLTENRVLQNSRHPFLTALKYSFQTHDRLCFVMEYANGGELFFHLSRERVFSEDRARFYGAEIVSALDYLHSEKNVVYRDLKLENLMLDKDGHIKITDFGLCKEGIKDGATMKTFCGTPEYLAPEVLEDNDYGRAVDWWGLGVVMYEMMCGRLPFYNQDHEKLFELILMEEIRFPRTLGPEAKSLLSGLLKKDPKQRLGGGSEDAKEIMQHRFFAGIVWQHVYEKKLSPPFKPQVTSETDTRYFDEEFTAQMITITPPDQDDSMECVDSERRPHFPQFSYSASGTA
Chain of MAPK1(h) (P27361 whole entry): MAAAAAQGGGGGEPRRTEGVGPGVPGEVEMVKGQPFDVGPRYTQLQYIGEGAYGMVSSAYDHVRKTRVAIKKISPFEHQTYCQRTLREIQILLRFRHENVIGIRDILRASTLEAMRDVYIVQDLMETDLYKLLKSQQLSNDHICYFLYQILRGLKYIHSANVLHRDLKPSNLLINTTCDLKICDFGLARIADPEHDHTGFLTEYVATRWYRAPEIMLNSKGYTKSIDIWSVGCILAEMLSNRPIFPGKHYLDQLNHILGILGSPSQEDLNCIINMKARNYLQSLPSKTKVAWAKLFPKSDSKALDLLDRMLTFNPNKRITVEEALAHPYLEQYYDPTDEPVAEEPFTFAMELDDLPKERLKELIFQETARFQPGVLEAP
Chain of CDK3/cyclinE(h) (Q00526 whole entry): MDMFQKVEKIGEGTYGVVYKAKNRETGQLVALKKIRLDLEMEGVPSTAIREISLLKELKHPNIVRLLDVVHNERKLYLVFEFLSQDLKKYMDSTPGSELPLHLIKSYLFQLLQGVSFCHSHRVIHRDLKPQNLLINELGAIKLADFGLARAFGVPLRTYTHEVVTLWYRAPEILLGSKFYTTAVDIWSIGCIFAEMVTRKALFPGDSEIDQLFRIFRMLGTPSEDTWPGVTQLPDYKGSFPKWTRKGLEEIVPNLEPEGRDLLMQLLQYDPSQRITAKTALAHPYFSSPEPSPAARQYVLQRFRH
Chain of CDK3/cyclinE(h) (P24864 whole entry partner): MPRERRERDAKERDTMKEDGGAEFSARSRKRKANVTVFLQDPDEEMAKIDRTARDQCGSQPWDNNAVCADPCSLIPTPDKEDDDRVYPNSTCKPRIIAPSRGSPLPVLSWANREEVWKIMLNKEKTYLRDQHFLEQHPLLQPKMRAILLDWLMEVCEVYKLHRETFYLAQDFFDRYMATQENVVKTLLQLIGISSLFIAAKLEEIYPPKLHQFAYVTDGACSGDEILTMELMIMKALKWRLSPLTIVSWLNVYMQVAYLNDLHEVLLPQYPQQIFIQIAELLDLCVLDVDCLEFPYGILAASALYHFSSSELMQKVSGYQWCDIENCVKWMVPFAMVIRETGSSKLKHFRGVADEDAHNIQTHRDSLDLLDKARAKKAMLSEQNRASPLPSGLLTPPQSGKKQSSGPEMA
Chain of CDK5/p35(h) (Q00535 whole entry): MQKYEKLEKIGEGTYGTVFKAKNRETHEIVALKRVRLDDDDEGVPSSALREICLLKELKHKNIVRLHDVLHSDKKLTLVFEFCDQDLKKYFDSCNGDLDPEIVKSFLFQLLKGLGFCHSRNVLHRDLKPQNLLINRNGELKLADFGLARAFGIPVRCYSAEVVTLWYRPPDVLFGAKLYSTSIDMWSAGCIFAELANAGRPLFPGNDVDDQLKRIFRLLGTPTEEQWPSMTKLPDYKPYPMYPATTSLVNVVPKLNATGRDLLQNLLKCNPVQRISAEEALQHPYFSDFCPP
Chain of CDK5/p35(h) (Q15078 whole entry partner): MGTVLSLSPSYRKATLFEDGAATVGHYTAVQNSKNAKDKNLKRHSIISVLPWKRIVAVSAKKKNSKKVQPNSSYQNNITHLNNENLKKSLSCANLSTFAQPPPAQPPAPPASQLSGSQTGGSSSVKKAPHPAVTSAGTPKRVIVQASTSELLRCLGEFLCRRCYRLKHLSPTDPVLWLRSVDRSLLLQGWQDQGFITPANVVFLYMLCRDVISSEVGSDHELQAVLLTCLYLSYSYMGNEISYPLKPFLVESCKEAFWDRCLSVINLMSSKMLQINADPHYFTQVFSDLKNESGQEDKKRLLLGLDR
Chain of PKCδ(h) (Q05655 whole entry): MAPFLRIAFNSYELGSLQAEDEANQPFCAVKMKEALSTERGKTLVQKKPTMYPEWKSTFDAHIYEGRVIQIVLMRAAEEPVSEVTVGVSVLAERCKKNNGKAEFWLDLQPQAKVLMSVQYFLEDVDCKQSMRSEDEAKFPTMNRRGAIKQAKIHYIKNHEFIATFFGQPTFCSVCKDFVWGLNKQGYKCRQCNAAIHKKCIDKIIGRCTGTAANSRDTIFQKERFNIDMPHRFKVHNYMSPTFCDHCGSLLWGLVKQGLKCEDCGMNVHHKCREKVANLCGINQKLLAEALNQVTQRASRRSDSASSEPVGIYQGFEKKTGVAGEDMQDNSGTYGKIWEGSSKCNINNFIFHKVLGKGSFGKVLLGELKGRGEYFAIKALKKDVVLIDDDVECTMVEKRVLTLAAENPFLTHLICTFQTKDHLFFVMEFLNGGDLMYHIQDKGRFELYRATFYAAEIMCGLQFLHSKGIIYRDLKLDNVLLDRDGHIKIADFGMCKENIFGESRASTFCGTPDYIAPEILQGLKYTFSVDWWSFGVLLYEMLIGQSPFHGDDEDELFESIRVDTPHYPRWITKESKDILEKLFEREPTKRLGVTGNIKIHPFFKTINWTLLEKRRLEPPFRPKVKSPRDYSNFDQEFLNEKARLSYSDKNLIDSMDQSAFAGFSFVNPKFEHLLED
Chain of CHK2(h) (O96017 whole entry): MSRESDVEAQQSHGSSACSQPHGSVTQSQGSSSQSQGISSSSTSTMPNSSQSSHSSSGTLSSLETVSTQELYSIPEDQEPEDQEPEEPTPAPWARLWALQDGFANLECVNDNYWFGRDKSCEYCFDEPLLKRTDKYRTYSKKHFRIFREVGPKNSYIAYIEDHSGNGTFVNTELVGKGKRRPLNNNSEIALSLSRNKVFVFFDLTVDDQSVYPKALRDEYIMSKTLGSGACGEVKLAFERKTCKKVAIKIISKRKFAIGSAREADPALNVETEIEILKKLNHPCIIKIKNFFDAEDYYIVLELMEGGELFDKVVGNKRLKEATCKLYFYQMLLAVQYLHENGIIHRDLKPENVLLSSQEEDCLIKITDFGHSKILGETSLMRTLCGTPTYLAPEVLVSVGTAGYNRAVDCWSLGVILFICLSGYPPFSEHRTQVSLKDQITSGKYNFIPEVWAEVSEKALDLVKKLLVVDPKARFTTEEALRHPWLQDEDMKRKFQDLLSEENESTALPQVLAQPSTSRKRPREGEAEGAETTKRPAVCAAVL
Chain of CDK6/cyclinD3(h) (Q00534 whole entry): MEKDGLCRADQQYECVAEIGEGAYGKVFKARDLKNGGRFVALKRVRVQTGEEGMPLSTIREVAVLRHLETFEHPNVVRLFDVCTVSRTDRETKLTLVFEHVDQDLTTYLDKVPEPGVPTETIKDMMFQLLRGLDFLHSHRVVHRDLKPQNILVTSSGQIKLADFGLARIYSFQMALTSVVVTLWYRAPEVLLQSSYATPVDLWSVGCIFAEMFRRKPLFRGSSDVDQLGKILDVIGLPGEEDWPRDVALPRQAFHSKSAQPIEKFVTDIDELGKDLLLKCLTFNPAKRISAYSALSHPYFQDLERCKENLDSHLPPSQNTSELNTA
Chain of CDK6/cyclinD3(h) (P30281 whole entry partner): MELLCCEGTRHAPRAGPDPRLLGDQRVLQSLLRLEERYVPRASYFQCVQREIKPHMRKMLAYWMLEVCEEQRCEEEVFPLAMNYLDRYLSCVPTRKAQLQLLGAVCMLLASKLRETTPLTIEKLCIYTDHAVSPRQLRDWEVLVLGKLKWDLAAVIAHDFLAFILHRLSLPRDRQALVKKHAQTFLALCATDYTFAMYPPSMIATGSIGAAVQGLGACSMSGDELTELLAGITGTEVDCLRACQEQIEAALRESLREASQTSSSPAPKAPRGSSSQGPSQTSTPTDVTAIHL
Chain of BTK(h) (Q06187 whole entry): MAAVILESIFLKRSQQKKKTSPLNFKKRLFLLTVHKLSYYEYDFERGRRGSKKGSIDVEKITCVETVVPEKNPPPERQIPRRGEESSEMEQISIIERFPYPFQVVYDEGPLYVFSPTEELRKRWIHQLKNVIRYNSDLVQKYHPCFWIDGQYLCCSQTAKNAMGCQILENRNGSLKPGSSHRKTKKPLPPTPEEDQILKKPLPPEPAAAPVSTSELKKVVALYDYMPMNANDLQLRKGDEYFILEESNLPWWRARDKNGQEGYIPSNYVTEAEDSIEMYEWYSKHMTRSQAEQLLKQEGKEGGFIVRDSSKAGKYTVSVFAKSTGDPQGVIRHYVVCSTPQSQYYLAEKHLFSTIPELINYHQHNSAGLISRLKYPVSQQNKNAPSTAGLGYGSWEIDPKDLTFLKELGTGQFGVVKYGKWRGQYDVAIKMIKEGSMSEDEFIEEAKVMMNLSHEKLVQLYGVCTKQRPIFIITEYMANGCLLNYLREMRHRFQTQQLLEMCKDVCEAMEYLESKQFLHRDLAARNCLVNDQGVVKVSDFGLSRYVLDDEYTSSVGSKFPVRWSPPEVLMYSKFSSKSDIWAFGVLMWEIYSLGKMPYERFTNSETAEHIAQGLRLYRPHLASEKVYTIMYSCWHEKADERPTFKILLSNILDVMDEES

**Q.** How did the TGI ([1]; 20 mg/kg po QD) turn out when `O=C(Nc1cc(Nc2ncccc2-c2ncnc3[nH]cnc23)ccc1F)c1cc(C(F)(F)F)cc(C(F)(F)F)c1` [SJ-C1044, N-(5-(3-(9H-purin-6-yl)pyridin-2-ylamino)-2-fluorophenyl)-3,5-bis(trifluoromethyl)benzamide] was run?
**A.** The TGI was 72%.

**Q.** What about the TGI ([1]; 40 mg/kg po QD) of the same molecule?
**A.** Its TGI is 87%.

**Q.** And the TGI ([1]; 80 mg/kg po QD)?
**A.** The TGI was 107%.

**Q.** And the TGI ([2]; 20 mg/kg po QD)?
**A.** The TGI was 58%.

**Q.** And the TGI ([2]; 40 mg/kg po QD)?
**A.** Its TGI is 94%.

**Q.** And the TGI ([2]; 80 mg/kg po QD)?
**A.** The TGI was 117%.

**Q.** And the TGI ([3]; 20 mg/kg po QD)?
**A.** Its TGI is 50%.

**Q.** And the TGI ([3]; 40 mg/kg po QD)?
**A.** The TGI was 63%.

**Q.** And the TGI ([3]; 80 mg/kg po QD)?
**A.** The TGI was 66%.

**Q.** What about the TGI (MC38 syngeneic tumor; 14 days) of the same molecule?
**A.** The TGI was 88%.

**Q.** What about the “MC38 tumor growth in vivo” value (MC38 syngeneic tumor; compared to the control) of the same molecule?
**A.** The value was “completely inhibited”.

**Q.** What about the IC50 (ARAF) of the same molecule?
**A.** The IC50 was > 10000 nM.

**Q.** And the inhibition at 10 µM (ARAF; Table S1 no. 8)?
**A.** Its inhibition at 10 µM is 44%.

**Q.** What about the inhibition at 10 µM (ARAF; second A-Raf(h) entry, Table S1 no. 62) of the same molecule?
**A.** Its inhibition at 10 µM is -6%.

**Q.** And the inhibition at 10 µM (cSRC(h))?
**A.** The inhibition at 10 µM was 38%.

**Q.** And the inhibition at 10 µM [4]?
**A.** The inhibition at 10 µM was 24%.

**Q.** What about the inhibition at 10 µM (BTK(h)) of the same molecule?
**A.** Its inhibition at 10 µM is 18%.

**Q.** And the inhibition at 10 µM (PKBα(h))?
**A.** The inhibition at 10 µM was 15%.

**Q.** What about the inhibition at 10 µM (CDK7/cyclinH/MAT1(h)) of the same molecule?
**A.** The inhibition at 10 µM was 10%.

**Q.** What about the inhibition at 10 µM (CHK2(h)) of the same molecule?
**A.** Its inhibition at 10 µM is 0%.

**Q.** And the inhibition at 10 µM (MAPK1(h))?
**A.** Its inhibition at 10 µM is -3%.

**Q.** And the inhibition at 10 µM (Rsk2(h))?
**A.** Its inhibition at 10 µM is -4%.

**Q.** What about the inhibition at 10 µM (CDK6/cyclinD3(h)) of the same molecule?
**A.** The inhibition at 10 µM was -5%.

**Q.** What about the inhibition at 10 µM (CDK3/cyclinE(h)) of the same molecule?
**A.** Its inhibition at 10 µM is -7%.

**Q.** What about the inhibition at 10 µM (PKCδ(h)) of the same molecule?
**A.** The inhibition at 10 µM was -14%.

**Q.** And the inhibition at 10 µM (CDK5/p35(h))?
**A.** Its inhibition at 10 µM is -19%.

**Q.** And the IC50 [5]?
**A.** Its IC50 is 160 to 628 nM.
